Test [1] deals with insulin resistant L6 differentiated muscle cells. Briefly: glucose uptake (radiolabelled 2-deoxy-D-glucose) in insulin resistant L6 differentiated muscle cells (Palmitate exposure). The class given is cell-based. As for the experimental part:
Each condition was tested in triplicate.

Test [2] has as its system L6 differentiated muscle cells.
Procedure: The effect of zinc and vitamin D on glucose uptake in L6 differentiated muscle cells was measured after short (2hours) and long term (24 hours) incubations.
Ingredient J was tested at 10 µM and 20 µM.
Ingredient K was tested at 1 nM and 10 nM.
Ingredient J was prepared in water and stored at -20°C (mother solution at 2 M) and ingredient K was prepared in DMSO and stored at -20°C (mother solution at 0.01 mM). The day of the experiment, the ingredients were diluted in a serum-free medium (DMEM) containing 5.5 mM D-glucose to achieve the final tested concentrations and 0.1 % of DMSO.
L6 myoblasts were maintained in growth medium or DMEM 25 mM glucose supplemented with 10 % of fetal bovine serum (FBS), 100 U/ml penicillin, and 100 µg/ml streptomycin. For the glucose uptake study, cells were grown on 24 well plates at a density of 1000-1500 cells/well in 0.5 mL of growth medium. Five days after plating, the differentiation induction into myotubes was carried out in DMEM 25 mM glucose containing 2 % FBS, 100 U/ml penicillin, and 100 µg/ml streptomycin at 37°C under a 5 % CO2 atmosphere. The culture medium was changed every other day.
For short term incubation (2 hours), the day prior to the test, the culture medium was replaced by DMEM 25 mM D-glucose containing 0.25 % BSA, 100 U/ml penicillin, and 100 µg/ml streptomycin. The day after and prior to the test, cells were washed and incubated in DMEM containing 5.5 mM D-glucose, 0.34 % BSA in the presence of the ingredients for 2 hours with and without insulin (100 nM).
For long term incubation (24 hours), the day prior to the test, cells were pre-incubated in the presence of the tested ingredients (ingredient J, K, or a combination thereof) for 18 hours in DMEM 25 mM D-glucose containing 0.25 % BSA, 100 U/ml penicillin, and 100 µg/ml streptomycin in the absence of insulin. The day after and prior to the test, cells were washed and incubated in the presence of the tested ingredients for 6 hours more in DMEM containing 5.5 mM D-glucose, 0.34 % BSA without insulin. Insulin (100 nM) was added for the last 2 hours.
In normal and physiopathological conditions, glucose uptake was measured by incubation of the cells with radiolabelled 2-deoxy-D-[1,2 3H] glucose for 15 min. Glucose uptake was arrested by two washing steps in ice-cold PBS 1X. Then cells were solubilized in 0.1 N NaOH for 30 min. Cell associated radioactivity was then counted and protein quantification was determined using the coloric Lowry method.
Each condition was tested in triplicate. Insulin (100 and 1000 nM / 2 hours) and Metformin (1.5 mM / 24 hours) were used as positive controls.
Results are expressed in pmol glucose incorporated / min / mg protein and in % of control or basal condition or insulin 0 nM (100 %).
A statistical analysis allowing multiple comparisons (one way ANOVA followed by a Dunnett's t test; * P < 0.05, **P < 0.01, ***P < 0.001 versus control condition) was carried out.
[3] abbreviates: insulin resistant cells (Palmitate 6 hours), short term incubation (2 hrs), absence of insulin.
The mark [4] stands for this setting: insulin resistant cells (Palmitate 6 hours), short term incubation (2 hrs), presence of insulin (100 nM).
Setting [5] is: insulin resistant cells, long term incubation (24 hrs), absence of insulin.
The mark [6] stands for this setting: insulin resistant cells, long term incubation (24 hrs), presence of insulin (100 nM, last 2 hours).
The mark [7] stands for this setting: long term incubation (24 hrs), absence of insulin.
Where [8] appears, read: long term incubation (24 hrs), presence of insulin (100 nM, last 2 hours).
[9] abbreviates: short term incubation (2 hrs), absence of insulin, J 10 and 20 µM, K 1 and 10 nM, versus control.
[10] abbreviates: short term incubation (2 hrs), presence of insulin (100 nM), J 10 and 20 µM, K 1 and 10 nM.

Each structure is given as a SMILES string. Read-outs that look alike come from different tables or passages of the source.

With `C=C1/C(=C\C=C2/CCC[C@]3(C)[C@@H]([C@H](C)CCCC(C)(C)O)CC[C@@H]23)C[C@@H](O)C[C@@H]1O` [ingredient K, 1,25-dihydroxyvitamin D3], the glucose uptake result in test [1] (setting [3]) is reported as “significant increases”; in test [1] (setting [4]), “did not increase insulin-induced glucose uptake”; in test [1] (setting [5]), “no increases or a slight but not significant increase”; in test [1] (setting [6]), “No increase or a slight but not significant increase”; in test [2] (setting [7]) it was “no increases or a slight but not significant increase”; in test [2] (setting [8]) it was “No increase or a slight but not significant increase”. In addition, the glucose uptake entry in test [2] (setting [9]) is reported as “significant increases”; in test [2] (setting [10]), “did not increase insulin-induced glucose uptake”.

With `[Cl-].[Cl-].[Zn+2]` [ingredient J, zinc chloride], the glucose uptake result in test [1] (setting [3]), in test [1] (setting [4]), in test [1] (setting [5]), in test [1] (setting [6]), in test [2] (setting [7]) and in test [2] (setting [8]) was “no increase or a slight but not significant increase” each time. Further, the glucose uptake result in test [2] (setting [9]) and in test [2] (setting [10]) was “no increase or a slight but not significant increase” each time.

Values taken from patent EP3177150B1, “A COMBINATION OF VITAMIN D AND ZINC AND ITS USE” (Société des Produits Nestlé S.A., priority 2014, dated 2016).
